{"source": "patent US20100204142A1", "about": "“USE OF THE PEPTIDE PHPFHLFVY (RENIN INHIBITOR) AS A THERAPEUTIC AGENT” (priority 2007, published 2010)", "tested_on": "drug-resistant Mycobacterium tuberculosis", "settings": "drug-resistant Mycobacterium tuberculosis growth; peptide 10 micrograms per ml; seven days", "note": "Where no end group is shown, it is not given here.", "data": [{"substance": "PHPFHLFVY-OH [Renin inhibitor]", "values": [{"measurement": "% inhibition", "result": 0.0, "unit": "%"}]}]}
